Laboratory results as given in patent US12662494B2, “Optically active bridged piperidine derivative” (Sumitomo Pharma Co., Ltd., priority 2018, dated 2026).

Columns and labels:
MOLM-13 cells = assay: Test 2: inhibition of cell proliferation, MOLM-13; type: cell-based; conditions: Homo sapiens, 168 h, 7 days, PrestoBlue cell viability
Method: (§1) Test 2: Test for Evaluating the Inhibition of Cell Proliferation
(§2) RS4; 11 cells were obtained from American Type Culture Collection (ATCC). The cells were cultured at 37° C. in the presence of 5% CO2 in RPMI 1640 medium containing 10% fetal bovine serum and 1% penicillin/streptomycin. MOLM-13 cells were separately obtained from DSMZ (Deutsche Sammlung von Mikroorganismen und Zellkulturen GmbH). The cells were cultured at 37° C. in the presence of 5% CO2 in RPMI 1640 medium containing […] and 1% penicillin/streptomycin.
(§3) The cells were plated to a 96-well plate in 2000 cells/well, each test compound was added thereto to adjust the final concentration of DMSO to 0.1% of DMSO, and the cells were cultured for 7 days. After the cultivation, the cell viability was calculated with PrestoBlue™ Cell Viability Reagent (Invitrogen, A13261). The IC50 value was calculated from a survival curve, that corresponds to the concentration of the test compound at which the cell proliferation inhibition rate is 50%.

HOXA9 = assay: Test 3: inhibition of mRNA transcription, HOXA9 in MV4;11 cells; type: cell-based; conditions: 20 to 24 hours, fitted with GAPDH
Method: (§4) Test 3: Test for the Inhibition of mRNA Transcription with Test Compounds
(§5) MV4; 11 cells were obtained from American Type Culture Collection (ATCC). The cells were cultured at 37° C. in the presence of 5% CO2 in RPMI 1640 medium containing 10% fetal bovine serum and 1% penicillin/streptomycin. To the MV4; 11 cells was added each test compound to adjust the final concentration to 1 μmol/L, and the cells were cultured at 37° C. in the presence of 5% CO2 for 20 to 24 hours. After the incubation, the total RNA was extracted from the cells with RNeasy™ Mini Kit (QIAGEN, 74106), and CDNA was synthesized with Superscript™ VILO™ CDNA Synthesis Kit (Invitrogen, #11754250). By using TaqMan™ Gene Expression Master Mix (Applied Biosystems, 4369016) and TaqMan™ probe (Applied Biosystems), the expression level of mRNA was quantified from the obtained cDNA with 7900HT (Applied Biosystems). The mRNA expression level of each obtained gene was fitted with the expression level of mRNA of GAPDH.

[1] = target: T1, Menin-MLL binding (His-Menin1-615 and MLL1-172-FLAG) (Homo sapiens, UniProt O00255); assay: Test 1: inhibition of the menin-MLL binding (HTRF); conditions: His-Menin1-615 30 nmol/L, MLL1-172-FLAG 50 nmol/L
T1 construct: Menin1-615 wherein 6× His tag and HA tag are inserted in the N-terminus; HA (N); myc (C)
T1 sequence (O00255 1-615 isoform O00255-1): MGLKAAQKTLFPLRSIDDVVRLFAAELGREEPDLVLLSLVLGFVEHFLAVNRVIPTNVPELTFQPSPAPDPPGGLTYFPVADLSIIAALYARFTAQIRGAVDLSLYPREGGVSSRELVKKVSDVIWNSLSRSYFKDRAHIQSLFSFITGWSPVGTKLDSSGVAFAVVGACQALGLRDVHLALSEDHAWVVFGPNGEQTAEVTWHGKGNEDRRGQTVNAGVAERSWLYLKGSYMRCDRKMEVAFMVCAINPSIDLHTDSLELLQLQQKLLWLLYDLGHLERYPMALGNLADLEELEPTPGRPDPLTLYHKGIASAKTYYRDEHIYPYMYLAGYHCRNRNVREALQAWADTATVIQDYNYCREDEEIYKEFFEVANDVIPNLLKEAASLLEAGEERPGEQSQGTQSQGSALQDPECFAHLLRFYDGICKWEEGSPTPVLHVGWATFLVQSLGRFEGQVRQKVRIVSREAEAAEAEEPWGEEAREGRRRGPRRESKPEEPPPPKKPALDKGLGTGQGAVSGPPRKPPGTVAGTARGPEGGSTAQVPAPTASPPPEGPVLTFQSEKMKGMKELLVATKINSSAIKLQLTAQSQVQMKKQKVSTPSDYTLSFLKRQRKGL
Method: Test 1: Test for Evaluating the Inhibition of the Menin-MLL Binding
Menin1-615 wherein 6× His tag and HA tag are inserted in the N-terminus, and myc tag is inserted in the C-terminus (hereinafter, referred to as His-Menin1-615), was diluted with an assay buffer (25 mmol/L HEPES, 150 mmol/L NaCl, 1 mmol/L dithiothreitol, 0.5% (w/v) Tween 80, 0.3% (w/v) BSA, 0.3% (w/v) skim milk) to adjust the final concentration to 30 nmol/L. The test compounds were also diluted with the assay buffer to adjust each concentration of the test compounds to 0.005 to 5 μmol/L. The prepared His-Menin1-615 and test compounds were added to a light-shielding 384-well low-volume plate (Corning, #4514) in 2 μL/well and […], respectively, and the plate was covered with a lid for light-shielding (Corning, #3935), and incubated at room temperature for 3 hours. After the incubation, MLL1-172 wherein FLAG tag is inserted in the C-terminus (MLL1-172-FLAG), was separately diluted with the assay buffer to adjust the final concentration to 50 nmol/L. The prepared MLL1-172-FLAG was added to the above plate in 2 μL/well, and the plate was covered with a lid for light-shielding and incubated at room temperature for an hour.
Then, anti-6HIS-d2 antibody (cisbio, 61HISDLA) and anti-FLAGM2-K antibody (cisbio, 61FG2KLA) were diluted with an antibody dilution buffer (50 mmol/L Tris, 150 mmol/L NaCl, 800 mmol/L KF, pH 7.4) to adjust the final concentration to 1.4 μg/mL to prepare an antibody mixture. The prepared antibody mixture was added to the above plate in 10 μL/well, and the plate was covered with a lid and incubated at 4° C. for 17 to 24 hours. After the incubation, the signal was detected with RUBYstar (BMG LABTECH).

RS4; 11 cells = assay: Test 2: inhibition of cell proliferation, RS4;11; type: cell-based; conditions: for IC50: Homo sapiens, 168 h, RS4;11 cells, 7 days, PrestoBlue cell viability
Method: as §1, §2, §3

MEIS1 = assay: Test 3: inhibition of mRNA transcription, MEIS1 in MV4;11 cells; type: cell-based; conditions: for mRNA at 1 μM (% control) MEIS1: MV4;11 cells, 20 to 24 hours, fitted with GAPDH
Method: as §4, §5

IC50 (MOLM-13 cells)	IC50 [1]	IC50 (RS4; 11 cells)	Structure (SMILES)	mRNA at 1 μM (% control) HOXA9 (HOXA9)	mRNA at 1 μM (% control) MEIS1 (MEIS1)	cell proliferation inhibition activity, good (in words) (RS4; 11 cells; summary of Test 2 table, RS4;11 and MOLM-13)	mRNA transcription inhibition activity (in words) (MEIS1; summary of Test 3 table, MEIS1 and HOXA9, MV4;11 cells, 1 μM)
200 nM	9 nM	90 nM	C=C1C[C@@H]2CC[C@H]1[C@@H](C(=O)N1CC3(C1)CN(c1c(C#N)cnc4sc(CC(F)(F)F)cc14)C3)N2 [Example 6, 4-{6-[(1S,3S,4R)-5-methylidene-2-azabicyclo[2.2.2]octane-3-carbonyl]-2,6-diazaspiro[3.3]heptan-2-yl}-2-(2,2,2-trifluoroethyl)thieno[2,3-b]pyridine-5-carbonitrile]	45.9 % control	27.4 % control	–	–
690 nM	54.2 nM	440 nM	O=C([C@H]1N[C@H]2CC[C@@H]1[C@@H](F)[C@H]2CC1CC1)N1CC2(C1)CN(c1c(C(F)(F)F)cnc3sc(CC(F)(F)F)cc13)C2 [Example 13, [(1S,3S,4S,5S,6S)-6-(cyclopropylmethyl)-5-fluoro-2-azabicyclo[2.2.2]octan-3-yl]{6-[2-(2,2,2-trifluoroethyl)-5-(trifluoromethyl)thieno[2,3-b]pyridin-4-yl]-2,6-diazaspiro[3.3]heptan-2-yl}methanone]	45.4 % control	39.6 % control	good cell proliferation inhibition activity	mRNA transcription inhibition activity

More lines, now with the values behind:

Structure (SMILES)	IC50 (MOLM-13 cells)	IC50 [1]	IC50 (RS4; 11 cells)	mRNA at 1 μM (% control) HOXA9 (HOXA9)	mRNA at 1 μM (% control) MEIS1 (MEIS1)	cell proliferation inhibition activity, good (in words) (RS4; 11 cells; summary of Test 2 table, RS4;11 and MOLM-13)	mRNA transcription inhibition activity (in words) (MEIS1; summary of Test 3 table, MEIS1 and HOXA9, MV4;11 cells, 1 μM)
N#Cc1cnc2sc(CC(F)(F)F)cc2c1N1CC2(CN(C(=O)[C@H]3N[C@H]4CC[C@@H]3C[C@@H]4CC3CC3)C2)C1 [Example 2, 4-{6-[(1S,3S,4R,6S)-6-(cyclopropylmethyl)-2-azabicyclo[2.2.2]octane-3-carbonyl]-2,6-diazaspiro[3.3]heptan-2-yl}-2-(2,2,2-trifluoroethyl)thieno[2,3-b]pyridine-5-carbonitrile]	260 nM	7 nM	190 nM	48.2 % control	26.6 % control	–	–
O=C([C@H]1N[C@H]2CC[C@@H]1C[C@H]2CC1CC1)N1CC2(C1)CN(c1c(C(F)(F)F)cnc3sc(CC(F)(F)F)cc13)C2 [Example 3, [(1S,3S,4R,6R)-6-(cyclopropylmethyl)-2-azabicyclo[2.2.2]octan-3-yl]{6-[2-(2,2,2-trifluoroethyl)-5-(trifluoromethyl)thieno[2,3-b]pyridin-4-yl]-2,6-diazaspiro[3.3]heptan-2-yl}methanone]	800 nM	88.6 nM	590 nM	54.0 % control	52.6 % control	–	–
N#Cc1cnc2sc(CC(F)(F)F)cc2c1N1CC2(CN(C(=O)[C@H]3N[C@H]4CC[C@@H]3C[C@H]4CC3CC3)C2)C1 [Example 4, 4-{6-[(1S,3S,4R,6R)-6-(cyclopropylmethyl)-2-azabicyclo[2.2.2]octane-3-carbonyl]-2,6-diazaspiro[3.3]heptan-2-yl}-2-(2,2,2-trifluoroethyl)thieno[2,3-b]pyridine-5-carbonitrile]	710 nM	48 nM	290 nM	52.5 % control	47.1 % control	–	–
C=C1C[C@@H]2CC[C@H]1[C@@H](C(=O)N1CC3(C1)CN(c1c(C(F)(F)F)cnc4sc(CC(F)(F)F)cc14)C3)N2 [Example 5, [(1S,3S,4R)-5-methylidene-2-azabicyclo[2.2.2]octan-3-yl]{6-[2-(2,2,2-trifluoroethyl)-5-(trifluoromethyl)thieno[2,3-b]pyridin-4-yl]-2,6-diazaspiro[3.3]heptan-2-yl}methanone]	280 nM	92.7 nM	200 nM	44.3 % control	32.3 % control	–	–
